Experimental data: PMC4039038 (Journal of immunology (Baltimore, Md. : 1950), 2011)

Key:
[1] = system: ERAP1 alleles (Ref, K528R, Q730E); assay: LAMC hydrolysis, all three ERAP1 alleles; type: biochemical, human; details: no activating peptide; 25°C, up to 10 min
[2] = system: ERAP1 alleles (Ref, K528R, Q730E); assay: LAMC trimming in the presence of SIINFEKL, all three ERAP1 alleles; type: biochemical, human; details: 100 μM SIINFEKL
ERAP1 K528R [3] = assay: LAMC hydrolysis, ERAP1 K528R; type: biochemical, human; details: no activating peptide, 25°C, up to 10 min
ERAP1 Q730E (730E) [4] = assay: Michaelis–Menten kinetics of antigenic peptide precursor trimming, ERAP1 Q730E; type: biochemical, human; details: low substrate concentrations (kcat/KM); Q730E vs Ref and K528R
ERAP1 Q730E (730E) [5] = target: ERAP1 Q730E (730E) (Homo sapiens, UniProt Q9NZ08, Q730E); assay: as above; type: biochemical; details: 730E allele; classical MM model; initial trimming rates, reactions limited to 10 min, 25°C
ERAP1 K528R (528R) = ERAP1 K528R (528R) (Homo sapiens, UniProt Q9NZ08, K528R); assay: Michaelis–Menten kinetics of antigenic peptide precursor trimming, ERAP1 K528R; type: biochemical
ERAP1 K528R [6] = assay: Activation of LAMC trimming by SIINFEKL, ERAP1 K528R; type: biochemical, human; details: 100 μM SIINFEKL, 25°C, up to 10 min
ERAP1 Q730E = assay: Activation of LAMC trimming by SIINFEKL, ERAP1 Q730E; type: biochemical, human; details: 100 μM SIINFEKL, 25°C, up to 10 min
ERAP1 = details: 8mer peptide; ref [3]; cited from earlier work
ERAP1 Q730E (rs27044) = ERAP1 Q730E (rs27044) (human, UniProt Q9NZ08-2 1-948, Q730E); assay: enzyme kinetics
[7] = target: endoplasmic reticulum aminopeptidase 1 (ERAP1), ancestral reference sequence NP_057526 (human, UniProt Q9NZ08-2 1-948); assay: enzyme kinetics
[8] = 528R allele, classical MM model, initial trimming rates, reactions limited to 10 min, 25°C

In the case of `Cc1cc(=O)oc2cc(NC(=O)[C@@H](N)CC(C)C)ccc12` [LAMC, L-leucine-7-amido-4-methyl coumarin], the “hydrolysis of LAMC by all three variants” value [1] is reported as “enzymatically active”, the “trimming activity of all three alleles toward LAMC in the presence of SIINFEKL” value ([2]; comparison between the three alleles) is reported as “comparable trimming activity” and the “fold less active of ERAP1 K528R in LAMC hydrolysis” value (ERAP1 K528R [3]) is reported as ~ 4 fold.

For LATFPDTLTY, the “processing rate, fold more slowly by Q730E than by the other two alleles” value (ERAP1 Q730E (730E) [4]) was 2 fold, the Km (ERAP1 Q730E (730E) [5]) was 45 ± 11 µM and the kcat (ERAP1 Q730E (730E) [5]) was 1.635 ± 0.10 s^–1. For the same molecule, the kcat/KM (ERAP1 Q730E (730E) [5]) was 36 ± 9 × 10^3 s^–1 M^–1, the Km (ERAP1 K528R (528R); [8]) was 49 ± 13 µM and the kcat (ERAP1 K528R (528R); [8]) was 3.09 ± 0.203 s^–1. For the same molecule, the kcat/KM (ERAP1 K528R (528R); [8]) was 63 ± 17 × 10^3 s^–1 M^–1 and the “processing rate by the K528R allele relative to other alleles” value (ERAP1 K528R (528R); saturating conditions (kcat controls trimming rates)) was “twice as quickly”.

For SIINFEKL, the “ERAP1-mediated hydrolysis of LAMC in the presence of SIINFEKL” value [2] was “enhanced”, the “magnitude of activation of LAMC trimming” value (ERAP1 K528R [6]) was 4 fold and the “magnitude of activation of LAMC trimming” value (ERAP1 Q730E) was 1.6 fold. For the same molecule, the “substrate quality for ERAP1” value (ERAP1) was “poor substrate”.

For LKRVVINKDT [LKRVVINKDT, single-amino acid extended precursor of the HLA-B27 ligand KRVVINKDT], the Ki (ERAP1 Q730E (rs27044)) was 132 ± 53 µM.

With YKRFEGLTQR [YKRFEGLTQR, single-amino acid extended precursor of the HLA-B27 ligand KRFEGLTQR] the Ki [7] was 394 ± 133 µM.
